Laboratory results: ChEMBL document CHEMBL3885881, “DrugMatrix”

Species on record: Rattus norvegicus
Experiment: DrugMatrix - Regimen: Daily Repeat
Assay type: toxicity, organism-based, Sprague-Dawley
Design: regimen Daily Repeat, gender Male, age 6-8 weeks
Settings: in vivo, po, route oral GAVAGE, vehicle .5 % CMC; for ABSOLUTE BASOPHIL / ABSOLUTE EOSINOPHIL / ABSOLUTE LYMPHOCYTE / ABSOLUTE MONOCYTE / ABSOLUTE SEGMENTED NEUTROPHIL / BASOPHIL / EOSINOPHIL / ERYTHROCYTE COUNT / HEMATOCRIT / HEMOGLOBIN / LEUKOCYTE COUNT / LYMPHOCYTE / MEAN CORPUSCULAR HEMOGLOBIN / MEAN CORPUSCULAR HEMOGLOBIN CONCENTRATION / MEAN CORPUSCULAR VOLUME / MONOCYTE / NEUTROPHIL / NUCLEATED RED BLOOD CELLS / PLATELET COUNT: tissue Blood; for ALANINE AMINOTRANSFERASE / ALBUMIN / ALKALINE PHOSPHATASE / ASPARTATE AMINOTRANSFERASE / BLOOD UREA NITROGEN / CARBON DIOXIDE / CHLORIDE / CHOLESTEROL / CREATINE PHOSPHOKINASE / CREATININE / GLUCOSE / LACTATE DEHYDROGENASE / LIPASE / PHOSPHORUS / POTASSIUM / SODIUM / TOTAL BILIRUBIN / TOTAL PROTEIN / URIC ACID: tissue Plasma
[1] = 8 mg/kg, 72 h, dose level High, time 3 day
[2] = 8 mg/kg, 120 h, dose level High, time 5 day
[3] = […], 72 h, dose 2.1 mg/Kg, dose level Low, time 3 day
[4] = […], 120 h, dose 2.1 mg/Kg, dose level Low, time 5 day

For C=C1CC[C@H](O)C/C1=C/C=C1\CCC[C@]2(C)[C@@H]([C@H](C)CCCC(C)C)CC[C@@H]12 [CHOLECALCIFEROL], the “ABSOLUTE BASOPHIL” value [1] was 0 CELLS/uL, the “ABSOLUTE EOSINOPHIL” value [1] was 42 CELLS/uL and the “ABSOLUTE LYMPHOCYTE” value [1] was 8592.67 CELLS/uL. The “ABSOLUTE MONOCYTE” value [1] was 336 CELLS/uL, the “ABSOLUTE SEGMENTED NEUTROPHIL” value [1] was 5029.33 CELLS/uL and the BASOPHIL [1] was 0%. The EOSINOPHIL [1] was 0.33%, the “ERYTHROCYTE COUNT” value [1] was 5.75 x10E6/uL and the HEMATOCRIT [1] was 36.93%. The HEMOGLOBIN [1] was 14.13 G/DL, the “LEUKOCYTE COUNT” value [1] was 14 x10E3/uL and the LYMPHOCYTE [1] was 61.67%. The “MEAN CORPUSCULAR HEMOGLOBIN” value [1] was 24.7 pg, the “MEAN CORPUSCULAR HEMOGLOBIN CONCENTRATION” value [1] was 38.27 G/DL and the “MEAN CORPUSCULAR VOLUME” value [1] was 64.53 fL. For the same molecule, the MONOCYTE [1] was 2.33%, the NEUTROPHIL [1] was 35.67% and the “NUCLEATED RED BLOOD CELLS” value [1] was 0.33 /100WBC. For the same molecule, the “PLATELET COUNT” value [1] was 1172.33 x10E3/uL, the “ALANINE AMINOTRANSFERASE” value [1] was 38.67 u/L and the ALBUMIN [1] was 4 G/DL. For the same molecule, the “ALKALINE PHOSPHATASE” value [1] was 218 u/L, the “ASPARTATE AMINOTRANSFERASE” value [1] was 93 u/L and the “BLOOD UREA NITROGEN” value [1] was 15.67 mg/dL. For the same molecule, the “CARBON DIOXIDE” value [1] was 25 mmol/L, the CHLORIDE [1] was 99.67 MEQ/L and the CHOLESTEROL [1] was 85.33 mg/dL. For the same molecule, the “CREATINE PHOSPHOKINASE” value [1] was 273 u/L, the CREATININE [1] was 0.19 mg/dL and the GLUCOSE [1] was 119.67 mg/dL. For the same molecule, the “LACTATE DEHYDROGENASE” value [1] was 381 u/L, the LIPASE [1] was 8.33 u/L and the PHOSPHORUS [1] was 12.67 mg/dL. For the same molecule, the POTASSIUM [1] was 6.05 MEQ/L, the SODIUM [1] was 144.53 MEQ/L and the “TOTAL BILIRUBIN” value [1] was 0.1 mg/dL. The “TOTAL PROTEIN” value [1] was 6.3 G/DL, the “URIC ACID” value [1] was 1.7 mg/dL and the “ABSOLUTE BASOPHIL” value [2] was 0 CELLS/uL. The “ABSOLUTE EOSINOPHIL” value [2] was 61.33 CELLS/uL, the “ABSOLUTE LYMPHOCYTE” value [2] was 15719.67 CELLS/uL and the “ABSOLUTE MONOCYTE” value [2] was 721.33 CELLS/uL. The “ABSOLUTE SEGMENTED NEUTROPHIL” value [2] was 1931 CELLS/uL, the BASOPHIL [2] was 0% and the EOSINOPHIL [2] was 0.33%. For the same molecule, the “ERYTHROCYTE COUNT” value [2] was 6.73 x10E6/uL, the HEMATOCRIT [2] was 40.8% and the HEMOGLOBIN [2] was 16.17 G/DL. For the same molecule, the “LEUKOCYTE COUNT” value [2] was 18.43 x10E3/uL, the LYMPHOCYTE [2] was 84.33% and the “MEAN CORPUSCULAR HEMOGLOBIN” value [2] was 24 pg. The “MEAN CORPUSCULAR HEMOGLOBIN CONCENTRATION” value [2] was 39.67 G/DL, the “MEAN CORPUSCULAR VOLUME” value [2] was 60.73 fL and the MONOCYTE [2] was 4%. For the same molecule, the NEUTROPHIL [2] was 11.33%, the “NUCLEATED RED BLOOD CELLS” value [2] was 0.33 /100WBC and the “PLATELET COUNT” value [2] was 1207.33 x10E3/uL. The “ALANINE AMINOTRANSFERASE” value [2] was 32.67 u/L, the ALBUMIN [2] was 3.77 G/DL and the “ALKALINE PHOSPHATASE” value [2] was 216 u/L. For the same molecule, the “ASPARTATE AMINOTRANSFERASE” value [2] was 95.67 u/L, the “BLOOD UREA NITROGEN” value [2] was 30.67 mg/dL and the “CARBON DIOXIDE” value [2] was 29.33 mmol/L. The CHLORIDE [2] was 97 MEQ/L, the CHOLESTEROL [2] was 84.33 mg/dL and the “CREATINE PHOSPHOKINASE” value [2] was 292 u/L. The CREATININE [2] was 0.31 mg/dL, the GLUCOSE [2] was 184 mg/dL and the “LACTATE DEHYDROGENASE” value [2] was 195.33 u/L. It also gave an LIPASE [2] of 8 u/L, a PHOSPHORUS [2] of 12.17 mg/dL and a POTASSIUM [2] of 6.13 MEQ/L. The SODIUM [2] was 142.43 MEQ/L, the “TOTAL BILIRUBIN” value [2] was 0.1 mg/dL and the “TOTAL PROTEIN” value [2] was 6.37 G/DL. For the same molecule, the “URIC ACID” value [2] was 2.97 mg/dL, the “ABSOLUTE BASOPHIL” value [3] was 0 CELLS/uL and the “ABSOLUTE EOSINOPHIL” value [3] was 0 CELLS/uL. For the same molecule, the “ABSOLUTE LYMPHOCYTE” value [3] was 13778.67 CELLS/uL, the “ABSOLUTE MONOCYTE” value [3] was 303 CELLS/uL and the “ABSOLUTE SEGMENTED NEUTROPHIL” value [3] was 1018.33 CELLS/uL. For the same molecule, the BASOPHIL [3] was 0%, the EOSINOPHIL [3] was 0% and the “ERYTHROCYTE COUNT” value [3] was 5.26 x10E6/uL. The HEMATOCRIT [3] was 33.23%, the HEMOGLOBIN [3] was 13.23 G/DL and the “LEUKOCYTE COUNT” value [3] was 15.1 x10E3/uL. For the same molecule, the LYMPHOCYTE [3] was 91.33%, the “MEAN CORPUSCULAR HEMOGLOBIN” value [3] was 25.17 pg and the “MEAN CORPUSCULAR HEMOGLOBIN CONCENTRATION” value [3] was 39.83 G/DL. For the same molecule, the “MEAN CORPUSCULAR VOLUME” value [3] was 63.27 fL, the MONOCYTE [3] was 2% and the NEUTROPHIL [3] was 6.67%. For the same molecule, the “NUCLEATED RED BLOOD CELLS” value [3] was 0.33 /100WBC, the “PLATELET COUNT” value [3] was 1338.67 x10E3/uL and the “ALANINE AMINOTRANSFERASE” value [3] was 64.33 u/L. The ALBUMIN [3] was 4.5 G/DL, the “ALKALINE PHOSPHATASE” value [3] was 325 u/L and the “ASPARTATE AMINOTRANSFERASE” value [3] was 90.33 u/L. For the same molecule, the “BLOOD UREA NITROGEN” value [3] was 18 mg/dL, the “CARBON DIOXIDE” value [3] was 24 mmol/L and the CHLORIDE [3] was 102.33 MEQ/L. For the same molecule, the CHOLESTEROL [3] was 85.67 mg/dL, the “CREATINE PHOSPHOKINASE” value [3] was 170.67 u/L and the CREATININE [3] was 0.22 mg/dL. For the same molecule, the GLUCOSE [3] was 154.33 mg/dL, the “LACTATE DEHYDROGENASE” value [3] was 246.33 u/L and the LIPASE [3] was 9.33 u/L. It also gave a PHOSPHORUS [3] of 15.17 mg/dL, a POTASSIUM [3] of 7.26 MEQ/L and an SODIUM [3] of 149.17 MEQ/L. The “TOTAL BILIRUBIN” value [3] was 0.33 mg/dL, the “TOTAL PROTEIN” value [3] was 6.3 G/DL and the “URIC ACID” value [3] was 1.63 mg/dL. For the same molecule, the “ABSOLUTE BASOPHIL” value [4] was 0 CELLS/uL, the “ABSOLUTE EOSINOPHIL” value [4] was 46.67 CELLS/uL and the “ABSOLUTE LYMPHOCYTE” value [4] was 13112 CELLS/uL. For the same molecule, the “ABSOLUTE MONOCYTE” value [4] was 47.33 CELLS/uL, the “ABSOLUTE SEGMENTED NEUTROPHIL” value [4] was 1427.33 CELLS/uL and the BASOPHIL [4] was 0%. For the same molecule, the EOSINOPHIL [4] was 0.33%, the “ERYTHROCYTE COUNT” value [4] was 5.69 x10E6/uL and the HEMATOCRIT [4] was 37.6%. For the same molecule, the HEMOGLOBIN [4] was 14.5 G/DL, the “LEUKOCYTE COUNT” value [4] was 14.63 x10E3/uL and the LYMPHOCYTE [4] was 89.67%. For the same molecule, the “MEAN CORPUSCULAR HEMOGLOBIN” value [4] was 25.53 pg, the “MEAN CORPUSCULAR HEMOGLOBIN CONCENTRATION” value [4] was 38.57 G/DL and the “MEAN CORPUSCULAR VOLUME” value [4] was 66.17 fL. The MONOCYTE [4] was 0.33%, the NEUTROPHIL [4] was 9.67% and the “NUCLEATED RED BLOOD CELLS” value [4] was 0.33 /100WBC. For the same molecule, the “PLATELET COUNT” value [4] was 1071 x10E3/uL, the “ALANINE AMINOTRANSFERASE” value [4] was 53 u/L and the ALBUMIN [4] was 4.6 G/DL. For the same molecule, the “ALKALINE PHOSPHATASE” value [4] was 301.33 u/L, the “ASPARTATE AMINOTRANSFERASE” value [4] was 84 u/L and the “BLOOD UREA NITROGEN” value [4] was 19.67 mg/dL. For the same molecule, the “CARBON DIOXIDE” value [4] was 31.67 mmol/L, the CHLORIDE [4] was 97.33 MEQ/L and the CHOLESTEROL [4] was 72.33 mg/dL. The “CREATINE PHOSPHOKINASE” value [4] was 267.33 u/L, the CREATININE [4] was 0.24 mg/dL and the GLUCOSE [4] was 143.33 mg/dL. For the same molecule, the “LACTATE DEHYDROGENASE” value [4] was 287 u/L, the LIPASE [4] was 8.67 u/L and the PHOSPHORUS [4] was 11.33 mg/dL. For the same molecule, the POTASSIUM [4] was 6.64 MEQ/L, the SODIUM [4] was 141.97 MEQ/L and the “TOTAL BILIRUBIN” value [4] was 0.2 mg/dL. The “URIC ACID” value [4] was 1.67 mg/dL.
